Measurements: publication PMC10063609, “Discovery of novel cardiac troponin activators using fluorescence polarization-based high throughput screening assays” (Scientific Reports, 2023)
Structures can show the parent of a compound that is named as a salt. Where two headings read alike, the source gives them in different places. One block for each molecule: values may come before it.

Legend:
[1] = target: interaction between cTnC and switch peptide of cTnI (cTnISP) (Homo sapiens, UniProt P63316); experiment: Fluorescence polarization HTS and dose-response, cTnC/FAM-cTnISP; type: binding
[2] = target: interaction between cTnC and the anchoring region of cTnI (cTnIAR) (Homo sapiens, UniProt P63316); experiment: Fluorescence polarization HTS, binding and dose-response, cTnC/FAM-cTnIAR; conditions: cTnIAR primary screen, single concentration 10 μmol/L
[3] = cTnISP primary screen, TOCRIScreen library, single concentration 50 μmol/L
[4] = cTnISP primary screen, ENZO Screenwell library, single concentration 50 μmol/L
[5] = cTnISP primary screen, LOPAC 1280 library, single concentration 50 μmol/L

Molecule: Cc1[nH]c(/C=C2\C(=O)Nc3ccc(S(=O)(=O)N(C)c4cccc(Cl)c4)cc32)c(C)c1C(=O)N1CCN(C)CC1 [SU 11274]
FP (mP) [1, 3]: 64.5 mP

Molecule: Clc1ccc(C(Cn2ccnc2)OCc2csc3c(Cl)cccc23)c(Cl)c1 (stereo not shown) [Sertaconazole]
FP (mP) [1, 4]: 88.2 mP

Molecule: COc1cc(C(=O)NC2CCN(C)CC2)c(F)cc1Nc1ncc2c(n1)N(C1CCCC1)CC(F)(F)C(=O)N2C.Cl [TAK 960 hydrochloride]
FP (mP) [1, 3]: 88 mP

Molecule: Cc1cccc(C)c1-n1c(=O)c2cnc(Nc3ccc(N4CCN(C)CC4)cc3)nc2n2c3ccccc3nc12 [TC-S 7003]
FP (mP) [1, 3]: 73.5 mP

Molecule: CCN1CCN(C(=O)Cc2ccc(Nc3ncc(F)c(Nc4ccc(C(=O)Nc5ccccc5Cl)cc4)n3)cc2)CC1 [TC-S 7010]
FP (mP) ([2]; TOCRIScreen library): 108.3 mP

Molecule: O=[N+]([O-])c1ccc(CNc2nc(NCc3cccc(C(F)(F)F)c3)nc3nc[nH]c23)cc1 [TNP]
FP (mP) [1]: 90.9 mP

Molecule: CC/C(=C(\c1ccccc1)c1ccc(OCCN(C)C)cc1)c1ccccc1 [Tamoxifen Citrate]
FP (mP) [1, 4]: 69.1 mP
FP (mP) [1, 3]: 62.2 mP

Molecule: C[C@]12C=CC(=O)C=C1CC[C@@H]1C2=CC[C@]2(C)[C@@H](C(=O)CN3CCN(c4cc(N5CCCC5)nc(N5CCCC5)n4)CC3)CC[C@@H]12.O=C(O)/C=C\C(=O)O [U-74389G maleate]
FP (mP) ([2]; LOPAC 1280 library): 115.3 mP

Molecule: COc1ccc(N(C(=O)Oc2c(C)cccc2C)c2ccnc(Nc3ccc(N4CCN(C)CC4)cc3)n2)c(OC)c1 [WH-4-023]
FP (mP) [1, 3]: 56.3 mP

Molecule: CCCC[P+](CCCC)(CCCC)Cc1ccc(NC(=O)[C@H](Cc2ccc3ccccc3c2)NC(=NC2CCCCC2)NC2CCCCC2)cc1.Cl.[Cl-] [WIN 64338 hydrochloride]
FP (mP) ([2]; TOCRIScreen library): 71 mP

Molecule: (S)-(+)-Niguldipine hydrochloride
FP (mP) [1]: 85.7 mP

Molecule: BMS-189453
FP (mP) [1, 5]: 88.8 mP

Molecule: Colistin Sulfate
FP (mP) [1, 4]: 78.5 mP
FP (mP) ([2]; ENZO Screenwell library): 71.7 mP

The next lines start with the values.

FP (mP) [1, 5]: 78.4 mP
Molecule: [H]/N=C(/NCCCCC)N/N=C/c1c[nH]c2ccc(OC)cc12 [Tegaserod maleate]

FP (mP) [1, 3]: 65 mP
Molecule: CS(=O)(=O)O.c1cc2c(cc1C1CCCCC1)c1c3n2CCNC3CCC1 (stereo not shown) [Tetrindole mesylate]

FP (mP) [1, 4]: 74.3 mP
FP (mP) [1, 5]: 89.4 mP
Molecule: CSc1ccc2c(c1)N(CCC1CCCCN1C)c1ccccc1S2 (stereo not shown) [Thioridazine.HCl]

FP (mP) [1, 4]: 60.7 mP
Molecule: CN(C)CCOc1ccc(/C(=C(/CCCl)c2ccccc2)c2ccccc2)cc1 [Toremifene Base]

FP (mP) [1, 5]: 84.5 mP
Molecule: CN1CCN(CCCN2c3ccccc3Sc3ccc(C(F)(F)F)cc32)CC1 [Trifluoperazine dihydrochloride]

FP (mP) ([2]; LOPAC 1280 library): 115.8 mP
Molecule: N#CC(C#N)=C(N)/C(C#N)=C/c1ccc(O)cc1 [Tyrphostin AG 112]

FP (mP) [1, 3]: 80.5 mP
Molecule: CCCc1cc(C)[nH]c(=O)c1CNC(=O)c1cc(-c2ccc(N3CCN(C(C)C)CC3)nc2)cc2c1cnn2C(C)C [UNC 1999]

FP (mP) [1, 5]: 86.4 mP
Molecule: CCC(=O)Nc1cccc(Oc2nc(Nc3ccc(N4CCN(C)CC4)cc3OC)ncc2Cl)c1 [WZ4003]

FP (mP) [1, 3]: 81.2 mP
Molecule: COc1cc(N2CCN(C)CC2)ccc1Nc1ncc2c(n1)N(C)c1ccccc1C(=O)N2 [XMD 8-87]

FP (mP) [1, 3]: 89.2 mP
Molecule: COc1cc2c(Nc3ccc(NC(=O)c4ccccc4)cc3)ncnc2cc1OCCCN1CCOCC1 [ZM 447439]

FP (mP) ([2]; LOPAC 1280 library): 67.5 mP
Molecule: Cl.c1ccc(C2CCCC2NC2=NCCCCCCCCCCC2)cc1 (stereo not shown) [cDPCP]

FP (mP) [1, 5]: 87.6 mP
Molecule: OCCN1CCN(CC/C=C2/c3ccccc3Sc3ccc(C(F)(F)F)cc32)CC1 [cis-(Z)-Flupenthixol dihydrochloride]
